Test results published in PubChem BioAssay AID1963834 (Molecular Pharmacology Branch, DTP, NCI, 2024).

Tested on: 873145-292-R-J1-PDC complex spheroid viability
Experiment: Anticancer human tumor 873145-292-R-J1-PDC patient-derived renal clear cell carcinoma cell line growth inhibition [POLQ]
Details: for IC50: curve of first compound; for viability, T/C: stronger effect = lower value
Method: Multicellular complex tumor spheroid response to Polymerase (POL) inhibitors (novobiocin, ART-558, RP6685) in combination with a variety of drugs and investigational agents in selected tumor cell lines
The POL inhibitors (novobiocin, ART-558, and RP6685) were evaluated both individually and in combination with standard of care and investigational anticancer small molecules within a complex spheroid model of solid tumors. . Complex spheroids include a stromal component modeled by human endothelial cells (HUVEC) and fibroblasts modeled by human mesenchymal stem cells (MSCs). The concentration ranges selected for each drug and investigational agent were based upon clinically achievable concentrations if the clinical Cmax of the agent was known.
Compounds. The drugs and investigational agents: novobiocin (NSC847541), ART-558 (NSC835418), RP-6685 (NSC848927), peposertib (NSC802822), ceralasertib (NSC780249), elimusertib (NSC800525), camonsertib (NSC841442), AZD-1390 (NSC803789), olaparib (NSC753686), talazoparib (NSC767125), rucaparib (NSC756644), sotorasib (NSC818433), MRTX-1133 (NSC836407), SN-38 (NSC673596), topotecan (NSC609699), epotoside (NSC141540), doxorubicin (NSC123127), gemcitabine (NSC613327), 5-fluorouracil (NSC19893), paclitaxel (NSC125973), vemurafenib (NSC761431), MSA-2 (NSC828583), SN-011 (NSC837082), adavosertib (NSC754352), prexasertib (NSC758257), carboplatin (NSC241240) and oxaliplatin (NSC266046), were obtained from the National Cancer Institute (NCI) Developmental Therapeutics Program Chemical Repository (21). The FDA-approved anticancer drug set is available from the Developmental Therapeutics Program at https://dtp.cancer.gov/organization/dscb/obtaining/. […] The stock solutions were prepared in dimethyl sulfoxide (DMSO, Sigma-Aldrich, St. Louis, MO, cat. D2650), except for the platinum compounds which were prepared in saline (Quality Biological, Gaithersburg, MD, cat. 114-055-101), at 800-fold the tested concentration and stored at -70 degrees C prior to their use. All drugs and investigational agents were tested over a range starting from a high concentration at or near the clinical Cmax and decreasing in half-log increments. If the clinical Cmax for an agent had not been determined, the highest concentration tested was 10 microM, except for SN-38, which was tested at a high concentration of 1 microM.
Cell Culture. All cells were maintained in an incubator at 37 degrees C and 5% CO2 with 95% humidity. The PDC lines were cultured according to standard operating procedures established by the NCI PDMR (https://pdmr.cancer.gov). Table 3 of the manuscript, lists the cell lines along with the number of the three cell types plated to form the mct-spheroids and media for tumor cell growth. After thawing, all PDC lines, except 997537-175-T-J1-PDC and 415267-285-R-J2-PDC, were cultured in Matrigel-coated flasks prepared with a working solution of 1X Ham's F-12 nutrient mix, without supplementation (Thermo Fisher Scientific, cat. 11765054), 100 U/mL penicillin-streptomycin (Thermo Fisher Scientific, cat. 15140122), and 2.5% Matrigel (Corning Inc., Corning, NY, cat. 354248) for the first three passages. The two PDC lines 997537-175-T-J1-PDC and 415267-285-R-J2-PDC were cultured on uncoated flasks. The 857933-349-R-J2-PDC line was cultured in 6C/Colon 1B media containing advanced DMEM/F-12 (Thermo Fisher Scientific, cat. 12634028), 10 mM HEPES (Thermo Fisher Scientific, cat. 15630080), 1X GlutaMAX supplement (Thermo Fisher Scientific, cat. 35050061), 0.1 mg/mL primocin (InvivoGen, San Diego, CA, cat. ant-pm-2), 10% defined fetal bovine serum, heat inactivated (HyClone Laboratories Inc., Logan, UT, cat. SH30070.03HI), 50% L-WRN conditioned media (ATCC, cat. CRL-3276), 1.25 mM N-Acetyl-L-cysteine (Sigma-Aldrich, cat. A9165), 10 mM nicotinamide (Sigma-Aldrich, cat. N0636), 1X B-27 supplement (Thermo Fisher Scientific, cat. 17504044), 1X N-2 supplement (Thermo Fisher Scientific, cat. […]

[1] = second compound 0.0316 µM, first compound 0.0316 µM
[2] = second compound 0.0316 µM, first compound 0.1 µM
[3] = second compound 0.0316 µM, first compound 0.316 µM
[4] = second compound 0.0316 µM, first compound 1 µM
[5] = second compound 0.0316 µM, first compound 3.16 µM
[6] = second compound 0.0316 µM, first compound 10 µM
[7] = second compound 0.1 µM, first compound 0.0316 µM
[8] = second compound 0.1 µM, first compound 0.1 µM
[9] = second compound 0.1 µM, first compound 0.316 µM
[10] = second compound 0.1 µM, first compound 1 µM
[11] = second compound 0.1 µM, first compound 3.16 µM
[12] = second compound 0.1 µM, first compound 10 µM
[13] = second compound 0.316 µM, first compound 0.0316 µM
[14] = second compound 0.316 µM, first compound 0.1 µM
[15] = second compound 0.316 µM, first compound 0.316 µM
[16] = second compound 0.316 µM, first compound 1 µM
[17] = second compound 0.316 µM, first compound 3.16 µM
[18] = second compound 0.316 µM, first compound 10 µM
[19] = second compound 1 µM, first compound 0.0316 µM
[20] = second compound 1 µM, first compound 0.1 µM
[21] = second compound 1 µM, first compound 0.316 µM
[22] = second compound 1 µM, first compound 1 µM
[23] = second compound 1 µM, first compound 3.16 µM
[24] = second compound 1 µM, first compound 10 µM
[25] = second compound 3.16 µM, first compound 0.0316 µM
[26] = second compound 3.16 µM, first compound 0.1 µM
[27] = second compound 3.16 µM, first compound 0.316 µM
[28] = second compound 3.16 µM, first compound 1 µM
[29] = second compound 3.16 µM, first compound 3.16 µM
[30] = second compound 3.16 µM, first compound 10 µM
[31] = second compound 10 µM, first compound 0.0316 µM
[32] = second compound 10 µM, first compound 0.1 µM
[33] = second compound 10 µM, first compound 0.316 µM
[34] = second compound 10 µM, first compound 1 µM
[35] = second compound 10 µM, first compound 3.16 µM
[36] = second compound 10 µM, first compound 10 µM
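Note: spheroids exposed to compounds for 7 days before viability readout.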
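Throughout, for viability, T/C: luminescence signal used as surrogate for viable cell content; 100% = DMSO vehicle control viability.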

CC1COCCN1c1cc(C2(O)CC3CCC(C2)O3)c2cnn(-c3ccn[nH]3)c2n1 (centres undefined) + Nc1ccc(C#CCN(C(=O)Cc2ncc(C(F)(F)F)cc2C(F)(F)F)c2ccc(F)cc2)nn1
IC50 (second compound 0.0316 µM): 2.4 µM
IC50 (second compound 0.1 µM): 1.09 µM
IC50 (second compound 0.316 µM): > 10 µM
IC50 (second compound 1 µM): 1.68 µM
IC50 (second compound 3.16 µM): > 10 µM
IC50 (second compound 10 µM): > 10 µM
viability, T/C [1]: 101%
viability, T/C [2]: 84%
viability, T/C [3]: 61.3%
viability, T/C [4]: 52.8%
viability, T/C [5]: 50.3%
viability, T/C [6]: 47.6%
viability, T/C [7]: 111%
viability, T/C [8]: 81.9%
viability, T/C [9]: 61.5%
viability, T/C [10]: 48.1%
viability, T/C [11]: 49.8%
viability, T/C [12]: 40.9%
viability, T/C [13]: 94.3%
viability, T/C [14]: 79.4%
viability, T/C [15]: 54.9%
viability, T/C [16]: 50.4%
viability, T/C [17]: 59.4%
viability, T/C [18]: 45.6%
viability, T/C [19]: 89.2%
viability, T/C [20]: 72.2%
viability, T/C [21]: 59.9%
viability, T/C [22]: 50.2%
viability, T/C [23]: 51.2%
viability, T/C [24]: 42.4%
viability, T/C [25]: 89.2%
viability, T/C [26]: 81%
viability, T/C [27]: 67.5%
viability, T/C [28]: 53.2%
viability, T/C [29]: 56.8%
viability, T/C [30]: 46.9%
viability, T/C [31]: 99.3%
viability, T/C [32]: 94.5%
viability, T/C [33]: 66%
viability, T/C [34]: 57.1%
viability, T/C [35]: 55.3%
viability, T/C [36]: 48.2%

CCCS(=O)(=O)Nc1ccc(F)c(C(=O)c2c[nH]c3ncc(-c4ccc(Cl)cc4)cc23)c1F + Nc1ccc(C#CCN(C(=O)Cc2ncc(C(F)(F)F)cc2C(F)(F)F)c2ccc(F)cc2)nn1
IC50 (second compound 0.0316 µM): > 10 µM
IC50 (second compound 0.1 µM): > 10 µM
IC50 (second compound 0.316 µM): > 10 µM
IC50 (second compound 1 µM): > 10 µM
IC50 (second compound 3.16 µM): > 10 µM
IC50 (second compound 10 µM): > 10 µM
viability, T/C [1]: 106%
viability, T/C [2]: 106%
viability, T/C [3]: 115%
viability, T/C [4]: 97%
viability, T/C [5]: 103%
viability, T/C [6]: 71.2%
viability, T/C [7]: 103%
viability, T/C [8]: 110%
viability, T/C [9]: 91.9%
viability, T/C [10]: 98%
viability, T/C [11]: 105%
viability, T/C [12]: 63.3%
viability, T/C [13]: 109%
viability, T/C [14]: 107%
viability, T/C [15]: 93.3%
viability, T/C [16]: 112%
viability, T/C [17]: 99.2%
viability, T/C [18]: 75.6%
viability, T/C [19]: 98.7%
viability, T/C [20]: 98.9%
viability, T/C [21]: 102%
viability, T/C [22]: 102%
viability, T/C [23]: 91.1%
viability, T/C [24]: 63%
viability, T/C [25]: 106%
viability, T/C [26]: 113%
viability, T/C [27]: 108%
viability, T/C [28]: 108%
viability, T/C [29]: 101%
viability, T/C [30]: 75.4%
viability, T/C [31]: 121%
viability, T/C [32]: 121%
viability, T/C [33]: 111%
viability, T/C [34]: 107%
viability, T/C [35]: 110%
viability, T/C [36]: 78.5%
